The values below come from patent US6656942B2, “Orally active salts with tyrosine kinase activity” (Merck & Co., Inc., priority 2000, dated 2003).

Usually solubility stands for the concentration that dissolves in the medium under given conditions.

Data set [1] can be described thus: Solubility of crystalline mesylate salts 1-11A and 1-11B. Type of data set: physicochemical. Here is the method: The amorphous mesylate salt was recrystallized from 50:50 Ethanol:THF to give a crystalline powder (Salt 1-11A). The X-ray powder diffraction pattern (XRPD) of the recrystallized mesylate salt 1-11A (FIG. 2) is indicative of crystalline material with multiple diffraction peaks between 5° and 30° 2-theta.
A second batch of crystalline mesylate salt (Salt 1-11B) was obtained by the following procdeure. To a stirred suspension of 1-11 (4.026 g, 9.22 mmol) in MeOH was slowly added at room temperature (RT) one equivalent of a 0.3M solution of methanesulfonic acid (30.73 mL). After all the solid had dissolved, the mixture was filtered into a flask and concentrated under reduced pressure while cooled to about 10° C. The resulting solid was suspended with 200 mL of ethylacetate, filtered, and dried to afford the mesylate salt. […] This crystalline form is different by XRPD than the one recrystallized from the amorphous salt in EtOH/THF (Salt 1-11A).

Data set [2] in a line: Solubility of HCl salt 1-11D suspended in solvents for 7 days at room temperature. The following applies: RT for 7 days. The data set is classed as physicochemical. As for the experimental part:
HCl salt 1-11D is also crystalline as witnessed by the X-ray powder diffraction pattern of the material, having multiple diffraction peaks between 5° and 30° 2-theta. […] (rate of 10° C./min). The compound is birefringent under plane polarized light. It is needle-shaped particles of approximately 5-25 micron. The solubility of salt 1-11D was measured in water and various organic solvents. Table VI below summarizes the solubility of the 1-11D suspended in various solvents for 7 days at room temperature.

Counter-ions that a name gives are not always drawn.

Regarding `CS(=O)(=O)N1CCN(Cc2ccc3[nH]c(-c4cc5ccccc5[nH]c4=O)cc3c2)CC1` [Salt 1-11B], the results for the solubility in data set [1] (Acetonitrile), in data set [1] (Isopropanol) and in data set [1] (Water) were 30 µg/mL, 3 µg/mL and 90 µg/mL, respectively.

Take `CS(=O)(=O)N1CCN(Cc2ccc3[nH]c(-c4cc5ccccc5[nH]c4=O)cc3c2)CC1` [Salt 1-11D]: the solubility turned out to be 4340 µg/mL in data set [2] (Aqueous ETOH); 3990 µg/mL in data set [2] (Aqueous IPA); 130 µg/mL in data set [2] (Ethanol); 57 µg/mL in data set [2] (Isopropanol); 620 µg/mL in data set [2] (Water).
